Laboratory results reported in ChEMBL document CHEMBL5046300, “Potent Bactericidal Antimycobacterials Targeting the Chaperone ClpC1 Based on the Depsipeptide Natural Products Ecumicin and Ohmyungsamycin A” (2022).
Values after ≈ are worked out from the molar mass of the structure shown. Active and inactive are the calls of the source. The rule behind the calls is not given here. *1 amine or outer side, *2 acyl side, *3 side chain or, on linkers, in order; H or OH if unused. Where a SMILES comes first, the peptide text is derived from it. Bridges are numbered along the chain shown (N, C = ends). [ ]: non-standard residue; d: D form. The star is where a group is joined. Phe(3R-OH) = O=C([C@@H](N[*:1])[C@H](O[*:3])c1ccccc1)[*:2]; NMeTrp(4-OMe) = CN[C@@H](Cc1c[nH]c2cccc(OC)c12)C(=O)O; NMeW = CN[C@@H](Cc1c[nH]c2ccccc12)C(=O)O; NMeaIle = CC[C@@H](C)[C@H](NC)C(=O)O; NMe2Val = CC(C)[C@@H](C(=O)*)N(C)C; NMeF = CN[C@@H](Cc1ccccc1)C(=O)O; NMeT = CN[C@H](C(=O)O)[C@@H](C)O; NMeL = CN[C@@H](CC(C)C)C(=O)O; NMeV = CN[C@H](C(=O)O)C(C)C; NMeA = CN[C@@H](C)C(=O)O

How the values were obtained:
Staphylococcus aureus [1] = test: Antibacterial activity against methicillin-sensitive Staphylococcus aureus ATCC 29213 assessed as bacterial growth inhibition incubated for 18 to 20 hrs by broth microdilution method; format: functional; conditions: time 18-20 hrs
Streptococcus pneumoniae = test: Antibacterial activity against Streptococcus pneumoniae ATCC 49619 assessed as bacterial growth inhibition incubated for 18 to 20 hrs by broth microdilution method; format: functional; conditions: time 18-20 hrs
[2] = tested on: Mycobacterium tuberculosis; test: Synergistic antimycobacterial activity against Mycobacterium tuberculosis mc2 6230 assessed as fractional inhibitory concentration incubated for 7 days in presence of isoniazid by checkerboard assay; format: functional; conditions: time 7 day
Brucella anthropi = test: Antibacterial activity against Ochrobactrum anthropi ATCC 49687 assessed as bacterial growth inhibition incubated for 18 to 20 hrs by broth microdilution method; format: functional; conditions: time 18-20 hrs
Staphylococcus aureus [3] = test: Antibacterial activity against methicillin-resistant Staphylococcus aureus BAA-44 assessed as bacterial growth inhibition incubated for 18 to 20 hrs by broth microdilution method; format: functional; conditions: time 18-20 hrs
Vibrio cholerae = test: Antibacterial activity against Vibrio cholerae A1552 El Tor assessed as bacterial growth inhibition incubated for 18 to 20 hrs by broth microdilution method; format: functional; conditions: time 18-20 hrs
Enterococcus faecium = test: Antibacterial activity against Enterococcus faecium ATCC 6569 assessed as bacterial growth inhibition incubated for 18 to 20 hrs by broth microdilution method; format: functional; conditions: time 18-20 hrs
Mycobacterium marinum [4] = test: Antimycobacterial activity against Mycobacterium marinum infected in zebrafish assessed as reduction in bacterial burden at 10 uM after 6 days post infection; format: functional; design: scale not given: the % may be the effect or the level left; conditions: time 6 day
Mycobacterium marinum [5] = test: Antimycobacterial activity against Mycobacterium marinum infected in zebrafish assessed as reduction in bacterial burden at 10 uM in presence of rifampicin after 6 days post infection; format: functional; design: scale not given: the % may be the effect or the level left; conditions: time 6 day
[6] = tested on: Providencia alcalifaciens; test: Antibacterial activity against Providencia alcalifaciens ATCC 9886 assessed as bacterial growth inhibition incubated for 18 to 20 hrs by broth microdilution method; format: functional; conditions: time 18-20 hrs
[7] = tested on: Mycobacterium tuberculosis; test: Synergistic antimycobacterial activity against Mycobacterium tuberculosis mc2 6230 assessed as fractional inhibitory concentration incubated for 7 days in presence of rifampicin by checkerboard assay; format: functional; conditions: time 7 day
[8] = tested on: Mycobacterium tuberculosis; test: Synergistic antimycobacterial activity against Mycobacterium tuberculosis mc2 6230 assessed as fractional inhibitory concentration incubated for 7 days in presence of bedaquiline by checkerboard assay; format: functional; conditions: time 7 day
[9] = tested on: Mycobacterium tuberculosis; test: Antimycobacterial activity against Mycobacterium tuberculosis mc2 6230 measured after 7 days by Time kill assay; format: functional, organism-based; conditions: time 7.0 day
Bacillus subtilis = test: Antibacterial activity against Bacillus subtilis ATCC 6051 assessed as bacterial growth inhibition incubated for 18 to 20 hrs by broth microdilution method; format: functional; conditions: time 18-20 hrs
Enterococcus faecalis = test: Antibacterial activity against Enterococcus faecalis ATCC 29212 assessed as bacterial growth inhibition incubated for 18 to 20 hrs by broth microdilution method; format: functional; conditions: time 18-20 hrs
[10] = tested on: Mycobacterium tuberculosis; test: Synergistic antimycobacterial activity against Mycobacterium tuberculosis mc2 6230 assessed as fractional inhibitory concentration incubated for 7 days in presence of pyrazinamide by checkerboard assay; format: functional; conditions: time 7 day
[11] = tested on: Yersinia pseudotuberculosis; test: Antibacterial activity against Yersinia pseudotuberculosis ATCC 6904 assessed as bacterial growth inhibition incubated for 18 to 20 hrs by broth microdilution method; format: functional; conditions: time 18-20 hrs
Pseudomonas aeruginosa = test: Antibacterial activity against Pseudomonas aeruginosa ATCC 27853 assessed as bacterial growth inhibition incubated for 18 to 20 hrs by broth microdilution method; format: functional; conditions: time 18-20 hrs
[12] = tested on: Mycobacterium tuberculosis; test: Synergistic antimycobacterial activity against Mycobacterium tuberculosis mc2 6230 assessed as fractional inhibitory concentration incubated for 7 days in presence of clofazimine by checkerboard assay; format: functional; conditions: time 7 day
[13] = tested on: Mycobacterium tuberculosis; test: Antimycobacterial activity against Mycobacterium tuberculosis mc2 6230 measured after 7 days; format: functional; conditions: mc2 6230, 168 h, time 7 day
Escherichia coli = test: Antibacterial activity against Escherichia coli K-12 MG1655 assessed as bacterial growth inhibition incubated for 18 to 20 hrs by broth microdilution method; format: functional; conditions: time 18-20 hrs
[14] = tested on: Mycolicibacterium smegmatis; test: Enhancement of hexameric Mycobacterium smegmatis ClpC1 ATPase activity assessed as fold increase at 100 uM incubated for 30 mins by ATP/NADH spectrophotometric analysis; conditions: filed as activator
[15] = tested on: Staphylococcus epidermidis; test: Antibacterial activity against Staphylococcus epidermidis ATCC 14990 assessed as bacterial growth inhibition incubated for 18 to 20 hrs by broth microdilution method; format: functional; conditions: time 18-20 hrs
Acinetobacter baumannii = test: Antibacterial activity against Acinetobacter baumannii ATCC 19606 assessed as bacterial growth inhibition incubated for 18 to 20 hrs by broth microdilution method; format: functional; conditions: time 18-20 hrs
Shigella sonnei = test: Antibacterial activity against Shigella sonnei ATCC 25931 assessed as bacterial growth inhibition incubated for 18 to 20 hrs by broth microdilution method; format: functional; conditions: time 18-20 hrs
Klebsiella aerogenes = test: Antibacterial activity against Klebsiella aerogenes ATCC 35029 assessed as bacterial growth inhibition incubated for 18 to 20 hrs by broth microdilution method; format: functional; conditions: time 18-20 hrs
[16] = tested on: Mycobacterium tuberculosis; test: Synergistic antimycobacterial activity against Mycobacterium tuberculosis mc2 6230 assessed as fractional inhibitory concentration incubated for 7 days in presence of ethambutol by checkerboard assay; format: functional; conditions: time 7 day
Klebsiella pneumoniae = test: Antibacterial activity against Klebsiella pneumoniae ATCC 700603 assessed as bacterial growth inhibition incubated for 18 to 20 hrs by broth microdilution method; format: functional; conditions: time 18-20 hrs
Mycobacterium marinum [17] = test: Antimycobacterial activity against mid-exponential phase Mycobacterium marinum M strain incubated for 2 days by fluorescence assay; format: functional; conditions: 48 h, time 2 day
[18] = tested on: Mycobacterium tuberculosis; test: Antibacterial activity against Mycobacterium tuberculosis mc2 6230 assessed as reduction in viable cells at 10 times MIC measured for 42 days in solid media by time kill assay; format: functional; conditions: time 42 day
Salmonella enterica = test: Antibacterial activity against Salmonella enterica ATCC 13311 assessed as bacterial growth inhibition incubated for 18 to 20 hrs by broth microdilution method; format: functional; conditions: time 18-20 hrs
Listeria ivanovii = test: Antibacterial activity against Listeria ivanovii BAA-139 assessed as bacterial growth inhibition incubated for 18 to 20 hrs by broth microdilution method; format: functional; conditions: time 18-20 hrs
[19] = tested on: Mycobacterium tuberculosis; test: Bactericidal activity against Mycobacterium tuberculosis mc2 6230 at 10 time MIC monitored for 28 days under hypoxic non-replicating culture condition by time kill assay; format: functional, organism-based; conditions: time 28.0 day
[20] = tested on: Mycolicibacterium smegmatis; test: Enhancement of Mycobacterium smegmatis ClpC1 ATPase activity assessed as inhibition of ClpC1/ClpP1P2 complex-mediated beta-casein proteolysis incubated for 30 to 60 mins by in vitro degradation assay; conditions: filed as activator, time 30-60 min
Mycobacterium marinum [21] = test: Antimycobacterial activity against tdTomato fluorescent Mycobacterium marinum infected in zebrafish assessed as reduction in bacterial burden at 25 uM pre-infected with bacteria for 4 to 5 days followed by compound addition and measured after day 6 post infection by microscopic analysis relative to control; format: functional; design: scale not given: the % may be the effect or the level left; conditions: time 4-5 day
[22] = tested on: Mycobacterium tuberculosis; test: Antimycobacterial activity against Mycobacterium tuberculosis H37Rv infected in human THP-1 cells assessed as log reduction in bacterial growth at 10 uM incubated for 3 to 4 weeks by intracellular killing assay; format: functional; conditions: time 3-4 weeks

| SMILES | MIC (Staphylococcus aureus [1]) | MIC (Streptococcus pneumoniae) | MIC (Brucella anthropi) | MIC (Staphylococcus aureus [3]) | MIC (Vibrio cholerae) | MIC (Enterococcus faecium) | Activity (Mycobacterium marinum [4]) | MIC [6] | MIC (Bacillus subtilis) | MIC (Enterococcus faecalis) | MIC [11] | MIC (Pseudomonas aeruginosa) | MIC [13] | MIC (Escherichia coli) | MIC [15] | MIC (Acinetobacter baumannii) | MIC (Shigella sonnei) | MIC (Klebsiella aerogenes) | MIC (Klebsiella pneumoniae) | MIC (Salmonella enterica) | also measured |
| --- | --- | --- | --- | --- | --- | --- | --- | --- | --- | --- | --- | --- | --- | --- | --- | --- | --- | --- | --- | --- | --- |
| CN[C@H](C(=O)N[C@H](C(=O)N[C@@H]1C(=O)N(C)[C@@H]([C@@H](C)O)C(=O)N[C@@H](C(C)C)C(=O)N(C)[C@@H](CC(C)C)C(=O)N[C@@H](C(C)C)C(=O)N(C)[C@@H](C)C(=O)N(C)[C@@H](Cc2c[nH]c3ccccc23)C(=O)N[C@@H](C(C)C)C(=O)N[C@@H](Cc2ccccc2)C(=O)N[C@@H](C(C)C)C(=O)O[C@@H]1C)C(C)C)C(C)C (H-[NMeV]VT[NMeT]V[NMeL]V[NMeA][NMeW]VFV; ester 3-C) | > 128 µM | > 128 µM | > 128 µM | > 128 µM | > 128 µM | > 128 µM | 50% | > 128 µM | 128 µM (≈ 177 µg/mL) | > 128 µM | > 128 µM | > 128 µM | 0.5 µM (≈ 0.692 µg/mL) | > 128 µM | > 128 µM | > 128 µM | > 128 µM | 128 µM (≈ 177 µg/mL) | > 128 µM | > 128 µM | FIC [2]: 2; Activity (Mycobacterium marinum [5]): 83%; FIC [7]: 0.375; FIC [8]: 3; Activity [9]: Active; FIC [10]: 2; FIC [12]: 2; fold change (FC) [14]: 3; FIC [16]: 0.75; MIC50 (Mycobacterium marinum [17]): 1.44 µM (≈ 1.99 µg/mL); Activity [18]: 6 log10CFU/ml; MIC (Listeria ivanovii): > 128 µM; Activity [19]: Active; Activity [20]: Active; Activity (Mycobacterium marinum [21]): 76% |
| CN[C@H](C(=O)N[C@H](C(=O)N[C@@H]1C(=O)N(C)[C@@H]([C@@H](C)O)C(=O)N[C@@H](C(C)C)C(=O)N(C)[C@@H](CC(C)C)C(=O)N[C@@H](C(C)C)C(=O)N(C)[C@@H](Cc2ccccc2)C(=O)N(C)[C@@H](Cc2c[nH]c3ccccc23)C(=O)N[C@@H](C(C)C)C(=O)N[C@@H](Cc2ccccc2)C(=O)N[C@@H](C(C)C)C(=O)O[C@@H]1C)C(C)C)C(C)C (H-[NMeV]VT[NMeT]V[NMeL]V[NMeF][NMeW]VFV; ester 3-C) | – | – | – | – | – | – | – | – | – | – | – | – | 0.125 µM (≈ 0.183 µg/mL) | – | – | – | – | – | – | – | inhibition [20]: Active |
| CC[C@@H](C)[C@@H](C(=O)N[C@@H]1C(=O)N(C)[C@@H]([C@@H](C)O)C(=O)N[C@@H](C(C)C)C(=O)N(C)[C@@H](CC(C)C)C(=O)N[C@@H](C(C)C)C(=O)N(C)[C@@H](C(C)C)C(=O)N(C)[C@@H](Cc2c[nH]c3cccc(OC)c23)C(=O)N[C@@H](C(C)C)C(=O)N[C@@H]([C@H](O)c2ccccc2)C(=O)N[C@@H](C(C)C)C(=O)O[C@@H]1C)N(C)C(=O)[C@@H](NC(=O)[C@H](C(C)C)N(C)C)C(C)C (NMe2Val-V[NMeaIle]T[NMeT]V[NMeL]V[NMeV][NMeTrp(4-OMe)]V[Phe(3R-OH)]V; ester 3-C) | – | – | – | – | – | – | – | – | – | – | – | – | 1 µM (≈ 1.6 µg/mL) | – | – | – | – | – | – | – | Activity [22]: 1 log10CFU/ml |
| CO[C@H]1/C=C/O[C@@]2(C)Oc3c(C)c(O)c4c(O)c(c(/C=N/N5CCN(C)CC5)c(O)c4c3C2=O)NC(=O)/C(C)=C\C=C\[C@H](C)[C@H](O)[C@@H](C)[C@@H](O)[C@@H](C)[C@H](OC(C)=O)[C@@H]1C [RIFAMPIN] | 0.02 µM (≈ 0.0165 µg/mL) | 0.11 µM (≈ 0.0905 µg/mL) | 4 µM (≈ 3.29 µg/mL) | 0.01 µM (≈ 0.00823 µg/mL) | 128 µM (≈ 105 µg/mL) | 21 µM (≈ 17.3 µg/mL) | 27% | 8 µM (≈ 6.58 µg/mL) | 4 µM (≈ 3.29 µg/mL) | 1 µM (≈ 0.823 µg/mL) | 11 µM (≈ 9.05 µg/mL) | 53 µM (≈ 43.6 µg/mL) | – | 4 µM (≈ 3.29 µg/mL) | 0.02 µM (≈ 0.0165 µg/mL) | 1 µM (≈ 0.823 µg/mL) | 1.7 µM (≈ 1.4 µg/mL) | 8 µM (≈ 6.58 µg/mL) | 16 µM (≈ 13.2 µg/mL) | 2 µM (≈ 1.65 µg/mL) | Activity [22]: 1 log10CFU/ml; MIC (Listeria ivanovii): 0.19 µM (≈ 0.156 µg/mL) |
